# Where “and” joins values, the source holds several entries; their conditions need not be identical. Equal values may be shown once.
# Test system: human PBMCs
# Assay: LPS-induced cytokine and chemokine levels in human PBMC supernatant (Luminex, ELISA)
# Format: cell-based
# Details: for CCl2, % reduction / CXCL1 % reduction / CXCL2 % reduction / MMP9 % reduction / CCl2, Mean / CXCL1, Mean / CXCL2, Mean / MMP9, Mean / CCl2, individual value / CXCL1, individual value / CXCL2, individual value / MMP9, individual value: LPS-stimulated PBMC supernatant; for CCl2, Mean / CXCL1, Mean / CXCL2, Mean / MMP9, Mean: sample size 2; for CCl2, individual value / CXCL1, individual value / CXCL2, individual value / MMP9, individual value: single replicate
# [1] = LPS-stimulated human PBMC supernatant, 0.03 µM
structure (smiles),measurement,setting,value
C=C[C@]1(C)C[C@@H](OC(=O)CS[C@@H]2CC[C@@H](N)C[C@H]2O)[C@]2(C)[C@H](C)CC[C@]3(CCC(=O)[C@H]32)[C@@H](C)[C@@H]1O [Lefamulin],"CCl2, % reduction",0.03 µM,-3.52%
same,CXCL1 % reduction,0.03 µM,-11%
same,CXCL2 % reduction,0.03 µM,-3%
same,MMP9 % reduction,0.03 µM,-7%
same,"CCl2, Mean",0.03 µM,1309 pg/mL
same,"CXCL1, Mean",0.03 µM,6607 pg/mL
same,"CXCL2, Mean",0.03 µM,5213 pg/mL
same,"MMP9, Mean",0.03 µM,3113 pg/mL
same,"CCl2, individual value",0.03 µM,1274 pg/mL and 1344 pg/mL
same,"CXCL1, individual value",0.03 µM,6599 pg/mL and 6616 pg/mL
same,"CXCL2, individual value",0.03 µM,5117 pg/mL and 5308 pg/mL
same,"MMP9, individual value",0.03 µM,3135 pg/mL and 3092 pg/mL
same,"CCl2, % reduction",0.1 µM,-1%
same,CXCL1 % reduction,0.1 µM,-3%
same,CXCL2 % reduction,0.1 µM,3%
same,MMP9 % reduction,0.1 µM,6%
same,"CCl2, Mean",0.1 µM,1279 pg/mL
same,"CXCL1, Mean",0.1 µM,6126 pg/mL
same,"CXCL2, Mean",0.1 µM,4904 pg/mL
same,"MMP9, Mean",0.1 µM,2899 pg/mL
same,"CCl2, individual value",0.1 µM,1178 pg/mL and 1379 pg/mL
same,"CXCL1, individual value",0.1 µM,5750 pg/mL and 6502 pg/mL
same,"CXCL2, individual value",0.1 µM,4854 pg/mL and 4955 pg/mL
same,"MMP9, individual value",0.1 µM,2852 pg/mL and 2946 pg/mL
same,"CCl2, % reduction",0.3 µM,-8%
same,CXCL1 % reduction,0.3 µM,-11%
same,CXCL2 % reduction,0.3 µM,-1.83%
same,MMP9 % reduction,0.3 µM,-13%
same,"CCl2, Mean",0.3 µM,1360 pg/mL
same,"CXCL1, Mean",0.3 µM,6577 pg/mL
same,"CXCL2, Mean",0.3 µM,5150 pg/mL
same,"MMP9, Mean",0.3 µM,3213 pg/mL
same,"CCl2, individual value",0.3 µM,1440 pg/mL and 1281 pg/mL
same,"CXCL1, individual value",0.3 µM,6950 pg/mL and 6204 pg/mL
same,"CXCL2, individual value",0.3 µM,5157 pg/mL and 5144 pg/mL
same,"MMP9, individual value",0.3 µM,3328 pg/mL and 3097 pg/mL
same,"CCl2, % reduction",1 µM,-4.42%
same,CXCL1 % reduction,1 µM,-4.56%
same,CXCL2 % reduction,1 µM,2.67%
same,MMP9 % reduction,1 µM,-10%
same,"CCl2, Mean",1 µM,1320 pg/mL
same,"CXCL1, Mean",1 µM,6222 pg/mL
same,"CXCL2, Mean",1 µM,4923 pg/mL
same,"MMP9, Mean",1 µM,3154 pg/mL
same,"CCl2, individual value",1 µM,1176 pg/mL and 1464 pg/mL
same,"CXCL1, individual value",1 µM,5695 pg/mL and 6750 pg/mL
same,"CXCL2, individual value",1 µM,4726 pg/mL and 5120 pg/mL
same,"MMP9, individual value",1 µM,3230 pg/mL and 3077 pg/mL
same,"CCl2, % reduction",3 µM,-29%
same,CXCL1 % reduction,3 µM,-12%
same,CXCL2 % reduction,3 µM,-3.75%
same,MMP9 % reduction,3 µM,-3%
same,"CCl2, Mean",3 µM,1626 pg/mL
same,"CXCL1, Mean",3 µM,6685 pg/mL
same,"CXCL2, Mean",3 µM,5247 pg/mL
same,"MMP9, Mean",3 µM,3044 pg/mL
same,"CCl2, individual value",3 µM,1606 pg/mL and 1647 pg/mL
same,"CXCL1, individual value",3 µM,6614 pg/mL and 6757 pg/mL
same,"CXCL2, individual value",3 µM,5389 pg/mL and 5104 pg/mL
same,"MMP9, individual value",3 µM,3098 pg/mL and 2991 pg/mL
same,"CCl2, % reduction",10 µM,-40%
same,CXCL1 % reduction,10 µM,-16%
same,CXCL2 % reduction,10 µM,2.3%
same,MMP9 % reduction,10 µM,13%
same,"CCl2, Mean",10 µM,1763 pg/mL
same,"CXCL1, Mean",10 µM,6870 pg/mL
same,"CXCL2, Mean",10 µM,4942 pg/mL
same,"MMP9, Mean",10 µM,2781 pg/mL
same,"CCl2, individual value",10 µM,1714 pg/mL and 1811 pg/mL
same,"CXCL1, individual value",10 µM,6794 pg/mL and 6946 pg/mL
same,"CXCL2, individual value",10 µM,4972 pg/mL and 4912 pg/mL
same,"MMP9, individual value",10 µM,2867 pg/mL and 2696 pg/mL
same,"CCl2, % reduction",30 µM,8%
same,CXCL1 % reduction,30 µM,7%
same,CXCL2 % reduction,30 µM,6%
same,MMP9 % reduction,30 µM,27%
same,"CCl2, Mean",30 µM,1163 pg/mL
same,"CXCL1, Mean",30 µM,5540 pg/mL
same,"CXCL2, Mean",30 µM,4765 pg/mL
same,"MMP9, Mean",30 µM,2563 pg/mL
same,"CCl2, individual value",30 µM,1184 pg/mL and 1143 pg/mL
same,"CXCL1, individual value",30 µM,5594 pg/mL and 5487 pg/mL
same,"CXCL2, individual value",30 µM,4928 pg/mL and 4603 pg/mL
same,"MMP9, individual value",30 µM,2485 pg/mL and 2640 pg/mL
same,"CCl2, % reduction",100 µM,92%
same,CXCL1 % reduction,100 µM,73%
same,CXCL2 % reduction,100 µM,2.31%
same,MMP9 % reduction,100 µM,11%
same,"CCl2, Mean",100 µM,141 pg/mL
same,"CXCL1, Mean",100 µM,1638 pg/mL
same,"CXCL2, Mean",100 µM,4941 pg/mL
same,"MMP9, Mean",100 µM,2809 pg/mL
same,"CCl2, individual value",100 µM,141 pg/mL
same,"CXCL1, individual value",100 µM,1562 pg/mL and 1715 pg/mL
same,"CXCL2, individual value",100 µM,4788 pg/mL and 5094 pg/mL
same,"MMP9, individual value",100 µM,2812 pg/mL and 2806 pg/mL
same,GM-CSF % reduction,[1],-7%
same,"GM-CSF [pg/mL], Mean",[1],705 pg/mL
same,"GM-CSF [pg/mL], individual value",[1],721 pg/mL and 689 pg/mL
same,IL-1β % reduction,[1],-4.62%
same,"IL-1β [pg/mL], Mean",[1],13375 pg/mL
same,"IL-1β [pg/mL], individual value",[1],13502 pg/mL and 13249 pg/mL
same,IL-6 % reduction,[1],9%
same,"IL-6 [pg/mL], Mean",[1],31710 pg/mL
same,"IL-6 [pg/mL], individual value",[1],32710 pg/mL and 30710 pg/mL
same,IL-8 % reduction,[1],-7%
same,"IL-8 [pg/mL], Mean",[1],3113 pg/mL
same,"IL-8 [pg/mL], individual value",[1],3135 pg/mL and 3092 pg/mL

# Source: publication PMC8480901 (PLoS ONE, 2021)
